Values of other authors in patent publication US7030077B2, “Detergent compositions” (Unilever Home and Personal Care USA, a division of Conopco, …, priority 2002, dated 2006).
Like-named read-outs stand apart in the source and are kept apart here.

[1] = other common materials, by contrast, at 20° C.

| Water Solubility (g/100 g) (highly water-soluble materials, grams of solid to form a saturated solution in 100 g of deionised water at 20° C.) | Structure (SMILES) | Water Solubility (g/100 g) [1] [g/100 g] |
| --- | --- | --- |
|  | O=BO[O-].[Na+] [Sodium perborate anhydrous] | 3.7 |
|  | O=P(O)(O)OP(=O)(O)OP(=O)(O)O [Sodium tripolyphosphate anhydrous] | 15 |
| >100 | NC(N)=O [Urea] |  |
